Reference: patent US10392368B2, “Pyrazolo and triazolo bicyclic compounds as JAK kinase inhibitors” (THERAVANCE BIOPHARMA R&D IP, LLC, priority 2017, dated 2019)

Tested on: IL-2 stimulated pSTAT5 in PBMC CD4+ T cells
Assay: Inhibition of IL-2 stimulated pSTAT5 in human PBMC CD4+ T cells
Assay type: cell-based
Conditions: flow cytometry
Protocol: The potency of test compounds for inhibition of interleukin-2 (IL-2) stimulated STAT5 phosphorylation was measured in human peripheral blood mononuclear cell (PBMC) CD4+ T cells using flow cytometry. Because IL-2 signals through JAK3, this assay provides a measure of JAK3 cellular potency in human primary cells.
Phosphorylated STAT5 was measured via flow cytometry by measuring pSTAT5 response in CD4+ T cells (Becton Disckinson, AlexaFluor 647 Mouse anti-Human STAT5 (pY694) and PE Mouse anti-Human CD4).
Human PBMCs were isolated from donors via Ficoll gradient and frozen at −80° C. Frozen PBMCs were thawed and cultured for one hour in a 37° C., 5% CO2 humidified incubator in RPMI (Life Technologies) supplemented with 10% Heat Inactivated Fetal Bovine Serum (FBS, Life Technologies), 2 mM Glutamax (Life Technologies), 25 mM HEPES (Life Technologies) and 1× Pen/Strep (Life Technologies). Cells were seeded into 2 ml deep well plates at 4e6 cells/ml (50 μl/well). […]
To determine the inhibitory potency of test compounds in response to IL-2, the median fluorescence intensity of pSTAT5 in CD4+ gated cells was measured in human PBMCs with a BD LSRII with analysis in FCS Express 6. IC50 values were determined from analysis of the inhibition curves of signal intensity vs compound concentration. Data are expressed as pIC50 (negative decadic logarithm IC50) values (mean±standard deviation).

CN(C)C/C=C/C(=O)N1CC(C#N)(COc2cc(-c3ccc(O)c(F)c3)cc3[nH]ncc23)C1 [Compound 8, (E)-1-(4-(dimethylamino)but-2-enoyl)-3-(((6-(3-fluoro-4-hydroxyphenyl)-1Hindazol-4-yl)oxy)methyl)azetidine-3-carbonitrile]
pIC50, inhibition of IL-2 stimulated pSTAT5, compared with assay 2: values very similar to the ones obtained in assay 2

CN(C)C/C=C/C(=O)N1CCC(C)(Oc2cc(-c3ccc(O)cc3)cc3[nH]ncc23)CC1 [Compound 9, (E)-4-(dimethylamino)-1-(4-((6-(4-hydroxyphenyl)-1H-indazol-4-yl)oxy)-4-methylpiperidin-1-yl)but-2-en-1-one]
pIC50, inhibition of IL-2 stimulated pSTAT5, compared with assay 2: values very similar to the ones obtained in assay 2
